Where two headings read alike, the source gives them in different places.
Key:
[1] = target: T1, FLT-3 kinase domain recombinant protein (Homo sapiens, UniProt P36888); experiment: Inhibition rate on FLT3 kinase (ELISA); type: biochemical; conditions: two values per compound; for inhibition at 0.01 µM / inhibition at 0.1 µM / inhibition at 1 µM: read-out: Inhibition rate (%) against receptor tyrosine kinase FLT-3
T1 construct: 50 μL FLT-3 kinase domain recombinant protein diluted with reaction buffer to initiate the reaction
T1 sequence (P36888 610-943 limits assumed): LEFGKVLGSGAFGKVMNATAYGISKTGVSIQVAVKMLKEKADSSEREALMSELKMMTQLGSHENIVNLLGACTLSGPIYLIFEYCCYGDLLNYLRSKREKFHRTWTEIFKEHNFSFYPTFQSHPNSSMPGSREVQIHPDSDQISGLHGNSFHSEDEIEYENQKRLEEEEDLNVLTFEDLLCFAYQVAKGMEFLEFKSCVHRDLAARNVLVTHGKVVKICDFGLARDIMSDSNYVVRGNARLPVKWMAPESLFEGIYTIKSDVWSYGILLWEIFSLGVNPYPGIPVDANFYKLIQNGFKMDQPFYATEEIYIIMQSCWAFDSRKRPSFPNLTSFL
Protocol: Conventional enzyme-linked immunosorbent assay (ELISA) method is used, and the specific steps are as follows
12,000 g of compounds were centrifuged for 5 min, DMSO was added to make a 10^−2M stock solution, vortexed uniformly and sonicated for 10 min for standby application, and stored at −40° C. The compounds were diluted from the stock solution with DMSO to 100 times the concentration to be tested (concentration of DMSO in the system being 1%) during the test.
1. The enzyme reaction substrate Poly (Glu, Tyr) 4:1 was diluted to 20 μg/mL with potassium-free PBS (10 mM sodium phosphate buffer, 150 mM NaCl, pH 7.2-7.4), the ELISA plate was coated with same in 125 μL/well, and reacted at 37° C. for 12-16 hours, the liquid in wells was discarded, the plate was washed three times, for 5 minutes each time, with T-PBS (potassium-free PBS with 0.1% Tween-20, 200 μL/well), and the ELISA plate was dried in an oven at 37° C. for 1-2 hours.
2. To each well were added 49 μL of ATP solution diluted with reaction buffer (50 mM HEPES pH 7.4, 50 mM MgCl2, 0.5 mM MnCl2, 0.2 mM Na3VO4, 1 mM DTT), 1 μL of compounds to be tested, and 50 μL FLT-3 kinase domain recombinant protein diluted with reaction buffer to initiate the reaction (two ATP-free control wells are required for each experiment). Subject to a shaker (100 rpm) at 37° C. and reacted for 1 hour. The liquid in wells was discarded, and the plate was washed three times with T-PBS.
(§1) 3. Antibody PY99 diluent (the antibody was diluted in 1:500 with T-PBS which contains 5 mg/mL BSA) was added in 100 μL/well, subjected same to a shaker at 37° C. and reacted for 0.5 hour. The liquid in wells was discarded, and the plate was washed three times with T-PBS.
as §1, with “4. Horseradish peroxidase labeled goat anti-mouse secondary antibody” for “3. Antibody PY99”, “1:2000” for “1:500”, “mg/ml” for “mg/mL”
5. 2 mg/ml of OPD developing solution (diluted with 0.1 M citric acid-sodium citrate buffer which contains 0.03% H2O2 (pH=5.4)) was added in 100 μL/well, and reacted at 25° C. in the dark for 1-10 minutes.
6. 2 M H2SO4 was added in 50 μL/well to stop the reaction, and the reading from the wavelength-adjustable microwell plate ELIASA VERSAmax was performed with a wavelength of 490 nm.

[2] = target: T2, AXL kinase (Homo sapiens, UniProt P30530); experiment: IC50 test on AXL kinase (Z′-LYTE FRET kinase activity detection); type: biochemical; conditions: for IC50: Z′-LYTE FRET peptide assay, 1 h reaction
T2 construct: purchased Invitrogen PV4803
T2 sequence (P30530 26-894): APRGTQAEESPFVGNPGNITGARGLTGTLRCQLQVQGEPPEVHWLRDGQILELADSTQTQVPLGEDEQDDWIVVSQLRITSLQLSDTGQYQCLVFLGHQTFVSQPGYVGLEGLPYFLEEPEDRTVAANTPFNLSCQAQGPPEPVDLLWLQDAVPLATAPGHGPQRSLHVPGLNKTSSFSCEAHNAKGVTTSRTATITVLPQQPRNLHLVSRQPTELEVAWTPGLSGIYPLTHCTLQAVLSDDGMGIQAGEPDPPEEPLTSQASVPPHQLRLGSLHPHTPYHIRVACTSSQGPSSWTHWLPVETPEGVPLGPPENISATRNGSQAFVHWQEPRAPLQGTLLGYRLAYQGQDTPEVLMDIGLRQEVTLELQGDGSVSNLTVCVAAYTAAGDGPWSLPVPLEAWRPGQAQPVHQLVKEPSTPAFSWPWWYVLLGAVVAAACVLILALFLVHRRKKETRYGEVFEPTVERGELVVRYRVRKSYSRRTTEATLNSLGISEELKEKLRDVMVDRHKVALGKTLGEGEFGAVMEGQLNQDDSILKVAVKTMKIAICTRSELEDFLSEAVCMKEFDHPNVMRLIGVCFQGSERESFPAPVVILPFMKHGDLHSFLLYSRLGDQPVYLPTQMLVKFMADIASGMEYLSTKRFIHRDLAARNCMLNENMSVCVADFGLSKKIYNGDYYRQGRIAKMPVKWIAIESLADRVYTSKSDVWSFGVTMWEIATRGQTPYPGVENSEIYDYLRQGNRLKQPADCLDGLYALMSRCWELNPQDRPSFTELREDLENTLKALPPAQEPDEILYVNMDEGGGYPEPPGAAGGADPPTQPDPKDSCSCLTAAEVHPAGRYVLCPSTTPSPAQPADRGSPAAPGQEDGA
Summary of the method: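 AXL kinase with Z′-LYTE Tyr 2 FRET peptide, ATP and graded compound concentrations reacted 1 h, then site-specific protease cleaved non-phosphorylated peptide for 1 h. Emission at 445 and 520 nm with 400 nm excitation gave the IC50.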

[3] = In vivo pharmacokinetic and bioavailability experiments of rats; set-up: species or system SD rats; conditions: Sprague-Dawley, rat, plasma; for bioavailability: po, 25 mg/kg, read-out: F (oral bioavailability); for AUC(0-inf) / AUC(0-t) / half-life / Cmax / clearance: SD rats; for Cmax: read-out: Cmax
Protocol: Pharmacokinetic and bioavailability experiments of rats. SD rats were administered orally (25 mg/kg) and intravenously (2.5 to 5 mg/kg) at a single dose. Animal blood samples were taken at appropriate time points after administration, heparin was added as anticoagulant, and same were centrifuged at 8000 rpm/min for 6 minutes, the supernatant was then taken and stored at −20° C. for HPLC-MS analysis. The proteins in blood samples were precipitated with acetonitrile at 12000 rpm for 10 min, and the supernatant was used for HPCL-MS analysis. Data were fit using DAS2.0 to obtain compartmental model and non-compartmental model parameters, respectively. The oral bioavailability of each compound was calculated according to AUC data.

Structure (SMILES) | Inhibition rate (%) against receptor tyrosine kinase FLT-3 ([1]; compound 10 nM, 0.01 µM) [%] | inhibition at 0.01 µM ([1]; compound 10 nM) [%] | Inhibition rate (%) against receptor tyrosine kinase FLT-3 ([1]; compound 100 nM, 0.1 µM) [%] | inhibition at 0.1 µM ([1]; compound 100 nM) [%] | Inhibition rate (%) against receptor tyrosine kinase FLT-3 ([1]; compound 1000 nM, 1 µM) [%] | inhibition at 1 µM ([1]; compound 1000 nM) [%] | IC50 [2] [nM] | inhibitory activity on AXL kinase ([2]; competitive experiment with ATP, in words) | bioavailability [3] [%] | AUC(0-inf) ([3]; Po, 25 mg/kg single dose) [ng·h/mL] | AUC(0-t) ([3]; Po, 25 mg/kg single dose) [ng·h/mL] | half-life ([3]; Po, 25 mg/kg single dose) [h] | Cmax ([3]; Po, 25 mg/kg single dose) [ng/mL] | AUC(0-inf) ([3]; iv, 5 mg/kg single dose) [ng·h/mL] | AUC(0-t) ([3]; iv, 5 mg/kg single dose) [ng·h/mL] | clearance ([3]; iv, 5 mg/kg single dose) [mL/min/kg] | half-life ([3]; iv, 5 mg/kg single dose) [h] | Cmax ([3]; iv, 5 mg/kg single dose) [ng/mL]
Cc1c(C(=O)Nc2ccc(Oc3ncnc4[nH]cc(-c5ccccc5)c34)c(F)c2)c(=O)c2cc(C(C)(C)C)ccc2n1C [TL4800062, 6-(tert-butyl)-N-(3-fluoro-4-((5-phenyl-7H-pyrrolo[2,3-d]pyrimidin-4-yl)oxy)phenyl)-1,2-dimethyl-4-oxo-1,4-dihydroquinoline-3-carboxamide] | 44.9 | 40.5 | 65.8 | 69.5 | 79.1 | 84 | 42 | – | – | – | – | – | – | – | – | – | – | –
Cc1c(C(=O)Nc2ccc(Oc3ncnc4[nH]cc(-c5ccccc5)c34)c(F)c2)c(=O)c2cc(OC(F)(F)F)ccc2n1C [TL4800117, N-(3-fluoro-4-((5-phenyl-7H-pyrrolo[2,3-d]pyrimidin-4-yl)oxy)phenyl)-1,2-dimethyl-4-oxo-6-(trifluoromethoxy)-1,4-dihydroquinoline-3-carboxamide] | 61.5 | 59.5 | 70.2 | 76.3 | 74.1 | 83.8 | 75 | – | – | – | – | – | – | – | – | – | – | –
CCc1ccc2c(c1)c(=O)c(C(=O)Nc1ccc(Oc3ncnc4[nH]cc(-c5ccccc5)c34)c(F)c1)c(CC)n2C [TL4830005, 2,6-diethyl-N-(3-fluoro-4-(5-phenyl-7H-pyrrolo[2,3-d]pyrimidin-4-yloxy)phenyl)-1-methyl-4-oxo-1,4-dihydroquinoline-3-carboxamide] | 49.8 | 55.7 | 53.3 | 50.1 | 59.9 | 71.4 | 23 | strong inhibitory activity | – | – | – | – | – | – | – | – | – | –
CCc1ccc2c(c1)c(=O)c(C(=O)Nc1ccc(Oc3ncnc4[nH]cc(-c5ccccc5)c34)c(C)c1)c(C)n2C [TL4830016, 6-ethyl-12-dimethyl-N-(3-methyl-4-(5-phenyl-7H-pyrrolo[2,3-d]pyrimidin-4-yloxy)phenyl)-4-oxo-1,4-dihydroquinoline-3-carboxamide] | 66.5 | 50.2 | 66.1 | 58.3 | 70.1 | 67.1 | 1120 | – | – | – | – | – | – | – | – | – | – | –
COc1cc2ncnc(Oc3ccc(NC(=O)c4cn5c6c(cc(C)cc6c4=O)CCC5)cc3F)c2cc1OC [TL4830032, N-(4-((6,7-dimethoxyquinazolin-4-yl)oxy)-3-fluorophenyl)-9-methyl-1-oxo-1,5,6,7-tetrahydropyrido[3,2,1-ij]quinoline-2-carboxamide] | 62.8 | 63.8 | 56.6 | 69.8 | 68.5 | 72 | 26.5 | – | – | – | – | – | – | – | – | – | – | –
COc1cc2ncnc(Oc3ccc(NC(=O)c4cn5c6c(c(N7CCN(C)CC7)c(F)cc6c4=O)OCN5C)cc3F)c2cc1OC [TL4830039, N-(4-((6,7-dimethoxyquinazolin-4-yl)oxy)-3-fluorophenyl)-9-fluoro-3-methyl-10-(4-methylpiperazin-1-yl)-7-oxo-2,3-dihydro-7H-[1,3,4] oxadiazino[6,5,4-ij]quinoline-6-carboxamide] | 49.8 | 44.7 | 57.4 | 66.4 | 80.9 | 87.6 | 58 | – | 7.92 | 12200 | 3800 | 35.5 | 219 | 13000 | 9600 | 6.5 | 12.7 | 1140
COc1cc2ncnc(Oc3ccc(NC(=O)c4cn(-c5ccc(F)cc5)c5cc(N6CCNCC6)c(F)cc5c4=O)cc3F)c2cc1OC [TL4830042, N-(4-(6,7-dimethoxyquinazolin-4-yloxy)-3-fluorophenyl)-6-fluoro-1-(4-fluorophenyl)-4-oxo-7-(piperazin-1-yl)-1,4-dihydroquinoline-3-carboxamide] | 40.0 | 52.3 | 44.5 | 53.8 | 87.0 | 92.3 | 38 | – | 0.2 | 151 | 98.9 | 14.5 | 7.15 | 15200 | 9780 | 5.83 | 15.8 | 885

— patent US10683278B2 (JINAN UNIVERSITY, priority 2015, dated 2020)
